{"source": "ChEMBL document CHEMBL5241112", "about": "“Insights into the recent progress in the medicinal chemistry of pyranopyrimidine analogs” (RSC Med Chem, 2022)", "key": {"Escherichia coli [1]": {"tested_on": "Escherichia coli", "assay": "Antibacterial activity against Escherichia coli ATCC 25922 assessed as diameter of inhibition zone at 50 mg/ml incubated for 24 hrs by paper disk diffusion method", "assay_type": "functional", "details": "read-out: DIZ"}, "Klebsiella pneumoniae": {"tested_on": "Klebsiella pneumoniae", "assay": "Antibacterial activity against Klebsiella pneumoniae MGH 78578 assessed as diameter of inhibition zone at 50 mg/ml incubated for 24 hrs by paper disk diffusion method", "assay_type": "functional", "details": "read-out: DIZ"}, "Penicillium italicum": {"tested_on": "Penicillium italicum", "assay": "microbe, parasite or virus in culture", "assay_type": "functional", "details": "CECT 2294, dose 50 mg/ml, time 24 hrs, read-out: DIZ"}, "Aspergillus fumigatus [2]": {"tested_on": "Aspergillus fumigatus", "assay": "microbe, parasite or virus in culture", "assay_type": "functional", "details": "ATCC204305, dose 50 mg/ml, time 24 hrs, read-out: DIZ"}, "Aspergillus fumigatus [3]": {"tested_on": "Aspergillus fumigatus", "assay": "Antifungal activity against Aspergillus fumigatus ATCC204305 assessed as inhibition of […] growth incubated for 24 hrs by disk diffusion method", "assay_type": "functional"}, "[4]": {"tested_on": "Staphylococcus epidermidis", "assay": "Antibacterial activity against Staphylococcus epidermidis ATCC12228 assessed as inhibition of bacterial growth incubated for 24 hrs by disk diffusion method", "assay_type": "functional"}, "DNA gyrase": {"molecular_target": "DNA gyrase (Escherichia coli, UniProt P0AES4+P0AES6)", "assay": "Inhibition of Escherichia coli DNA gyrase", "assay_type": "protein-complex assay"}, "[5]": {"assay": "Inhibition of Escherichia coli topoisomerase 4 assessed as reduction in decatenation"}, "U-937": {"tested_on": "U-937", "assay": "Induction of apoptosis in human U-937 cells assessed as total apoptotic cells at 50 uM incubated for 50 hrs by FACS analysis", "assay_type": "functional"}, "A549": {"tested_on": "A549", "assay": "Anticancer activity against human A549 cells assessed as reduction in cell viability incubated for 24 hrs by MTT assay", "assay_type": "functional, cell-based", "details": "A549, 24 h"}, "MCF7 [6]": {"tested_on": "MCF7", "assay": "Anticancer activity against human MCF7 cells assessed as reduction in cell viability incubated for 24 hrs by MTT assay", "assay_type": "functional, cell-based", "details": "MCF7, 24 h"}, "SK-OV-3": {"tested_on": "SK-OV-3", "assay": "Anticancer activity against human SK-OV-3 cells assessed as reduction in cell viability incubated for 24 hrs by MTT assay", "assay_type": "functional, cell-based", "details": "SK-OV-3, 24 h"}, "Bacillus pumilus [7]": {"tested_on": "Bacillus pumilus", "assay": "Antibacterial activity against Bacillus pumilus assessed as inhibition of bacterial growth by microdilution method", "assay_type": "functional"}, "Enterococcus faecalis [8]": {"tested_on": "Enterococcus faecalis", "assay": "Antibacterial activity against […] assessed as inhibition of bacterial growth by microdilution method", "assay_type": "functional"}, "Escherichia coli [9]": {"tested_on": "Escherichia coli", "assay": "Antibacterial activity against Escherichia coli assessed as inhibition of bacterial growth by microdilution method", "assay_type": "functional"}, "Enterobacter cloacae [10]": {"tested_on": "Enterobacter cloacae", "assay": "Antibacterial activity against Enterobacter cloacae assessed as inhibition of bacterial growth by microdilution method", "assay_type": "functional"}, "Aspergillus niger [11]": {"tested_on": "Aspergillus niger", "assay": "Antifungal activity against Aspergillus niger assessed as inhibition of fungal growth by microdilution method", "assay_type": "functional"}, "Candida albicans [12]": {"tested_on": "Candida albicans", "assay": "Antifungal activity against Candida albicans assessed as inhibition of fungal growth by microdilution method", "assay_type": "functional"}, "Bacillus pumilus [13]": {"tested_on": "Bacillus pumilus", "assay": "Antibacterial activity against Bacillus pumilus assessed as inhibition of bacterial growth at MIC by microdilution method", "assay_type": "functional"}, "Enterococcus faecalis [14]": {"tested_on": "Enterococcus faecalis", "assay": "Antibacterial activity against […] assessed as inhibition of bacterial growth at MIC by microdilution method", "assay_type": "functional"}, "Enterobacter cloacae [15]": {"tested_on": "Enterobacter cloacae", "assay": "Antibacterial activity against Enterobacter cloacae assessed as inhibition of bacterial growth at MIC by microdilution method", "assay_type": "functional"}, "Aspergillus niger [16]": {"tested_on": "Aspergillus niger", "assay": "Antifungal activity against Aspergillus niger assessed as inhibition of fungal growth at MIC by microdilution method", "assay_type": "functional"}, "Candida albicans [17]": {"tested_on": "Candida albicans", "assay": "Antifungal activity against Candida albicans assessed as inhibition of fungal growth at MIC by microdilution method", "assay_type": "functional"}, "Bacillus pumilus [18]": {"tested_on": "Bacillus pumilus", "assay": "Antibacterial activity against Bacillus pumilus assessed as minimum bactericidal concentration by microdilution method", "assay_type": "functional"}, "Enterococcus faecalis [19]": {"tested_on": "Enterococcus faecalis", "assay": "Antibacterial activity against […] assessed as minimum bactericidal concentration by microdilution method", "assay_type": "functional"}, "Enterobacter cloacae [20]": {"tested_on": "Enterobacter cloacae", "assay": "Antibacterial activity against Enterobacter cloacae assessed as minimum bactericidal concentration by microdilution method", "assay_type": "functional"}, "Aspergillus niger [21]": {"tested_on": "Aspergillus niger", "assay": "[…] activity against Aspergillus niger assessed as […] by microdilution method", "assay_type": "functional"}, "Candida albicans [22]": {"tested_on": "Candida albicans", "assay": "[…] activity against Candida albicans assessed as […] by microdilution method", "assay_type": "functional"}, "Caco-2": {"tested_on": "Caco-2", "assay": "Anticancer activity against human Caco-2 cells assessed as reduction in cell viability by MTT assay", "assay_type": "functional, cell-based"}, "[23]": {"assay": "Cytotoxicity against African green monkey Vero cells assessed as reduction in cell viability by MTT assay", "assay_type": "toxicity, cell-based", "details": "African green monkey (Chlorocebus sabaeus)"}, "[24]": {"molecular_target": "Poly [ADP-ribose] polymerase 1 (Homo sapiens, UniProt P09874)", "sequence (P09874 whole entry)": "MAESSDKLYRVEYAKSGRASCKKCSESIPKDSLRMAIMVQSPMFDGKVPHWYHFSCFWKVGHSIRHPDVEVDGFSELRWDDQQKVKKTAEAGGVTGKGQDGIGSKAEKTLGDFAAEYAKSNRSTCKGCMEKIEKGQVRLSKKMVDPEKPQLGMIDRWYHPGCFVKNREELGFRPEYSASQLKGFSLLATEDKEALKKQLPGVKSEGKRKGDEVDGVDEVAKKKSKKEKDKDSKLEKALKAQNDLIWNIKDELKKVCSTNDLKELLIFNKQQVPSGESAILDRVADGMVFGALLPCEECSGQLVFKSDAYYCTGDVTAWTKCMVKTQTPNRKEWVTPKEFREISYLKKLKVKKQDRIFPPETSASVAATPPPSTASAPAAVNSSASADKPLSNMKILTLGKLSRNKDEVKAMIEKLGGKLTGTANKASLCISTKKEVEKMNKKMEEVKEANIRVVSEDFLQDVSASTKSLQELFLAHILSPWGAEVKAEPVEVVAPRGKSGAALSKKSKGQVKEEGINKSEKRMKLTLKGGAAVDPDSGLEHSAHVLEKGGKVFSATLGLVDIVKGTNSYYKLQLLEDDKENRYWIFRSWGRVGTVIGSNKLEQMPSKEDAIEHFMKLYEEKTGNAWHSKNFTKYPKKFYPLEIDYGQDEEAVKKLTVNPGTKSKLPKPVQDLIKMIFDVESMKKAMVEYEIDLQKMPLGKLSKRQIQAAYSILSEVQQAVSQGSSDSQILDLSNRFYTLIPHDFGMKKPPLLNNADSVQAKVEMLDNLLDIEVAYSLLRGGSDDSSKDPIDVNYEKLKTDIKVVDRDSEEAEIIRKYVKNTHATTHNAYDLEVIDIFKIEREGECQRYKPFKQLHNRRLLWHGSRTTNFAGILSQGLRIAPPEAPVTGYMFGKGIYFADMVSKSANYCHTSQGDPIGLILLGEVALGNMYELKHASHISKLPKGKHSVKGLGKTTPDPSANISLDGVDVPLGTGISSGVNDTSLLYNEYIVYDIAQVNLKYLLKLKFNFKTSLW", "assay": "Inhibition of PARP1 (unknown origin) incubated for 1 hrs by colorimetric analysis"}, "MCF7 [25]": {"tested_on": "MCF7", "assay": "cells", "assay_type": "functional, cell-based", "details": "Homo sapiens, MCF7, 96 h"}, "HCT-116": {"tested_on": "HCT-116", "assay": "Anticancer activity against human HCT-116 cells assessed as reduction in cell viability incubated for 96 hrs by MTT assay", "assay_type": "functional, cell-based", "details": "HCT-116, 96 h"}, "Human alphaherpesvirus 1 [26]": {"tested_on": "Human alphaherpesvirus 1", "assay": "Antiviral activity against HSV-1 assessed as inhibition of viral replication at 20 ug", "assay_type": "functional", "set-up": "scale not given: the % may be the effect or the level left", "details": "dose 20 µg"}, "Human alphaherpesvirus 1 [27]": {"tested_on": "Human alphaherpesvirus 1", "assay": "Antiviral activity against HSV-1 assessed as inhibition of viral replication at 40 ug", "assay_type": "functional", "set-up": "scale not given: the % may be the effect or the level left", "details": "dose 40 µg"}}, "data": [{"smiles": "Nc1nc(=S)[nH]c2c1C(c1ccc(Cl)cc1)C=C(c1cc3ccccc3oc1=O)O2", "note": "(stereo not given)", "values": [{"measurement": "zone of inhibition at 50000 µg/mL", "setting": "Escherichia coli [1]", "value": 10, "unit": "mm"}, {"measurement": "zone of inhibition at 50000 µg/mL", "setting": "Klebsiella pneumoniae", "value": 12, "unit": "mm"}, {"measurement": "zone of inhibition at 50000 µg/mL", "setting": "Penicillium italicum", "value": 16, "unit": "mm"}, {"measurement": "zone of inhibition at 50000 µg/mL", "setting": "Aspergillus fumigatus [2]", "value": 10, "unit": "mm"}, {"measurement": "MIC", "setting": "Aspergillus fumigatus [3]", "value": 15.5, "unit": "µg/mL"}, {"measurement": "MIC", "setting": "[4]", "value": 15.3, "unit": "µg/mL"}, {"measurement": "IC50", "setting": "DNA gyrase", "value": 4.91, "unit": "nM"}, {"measurement": "IC50", "setting": "[5]", "value": 341, "unit": "nM"}]}, {"smiles": "O=c1nc2oc3ccc4ccccc4c3cc-2c(=O)n1-c1ccccc1", "values": [{"measurement": "Activity", "setting": "U-937", "value": 28.4, "unit": "%"}]}, {"smiles": "CCOC(=O)C1=C(C)Oc2nc(C)n(Cc3cn(-c4ccc([N+](=O)[O-])cc4)nn3)c(=O)c2C1c1ccccc1", "note": "(stereo not given)", "values": [{"measurement": "IC50", "setting": "A549", "value": 690, "unit": "nM"}, {"measurement": "IC50", "setting": "MCF7 [6]", "value": 71400, "unit": "nM"}, {"measurement": "IC50", "setting": "SK-OV-3", "value": 96500, "unit": "nM"}]}, {"smiles": "COc1ccc(N2C(=O)C3C(c4ccccc4)C(C#N)=C(N)OC3N(c3ccc(OC)cc3)C2=S)cc1", "note": "(stereo not given)", "values": [{"measurement": "MIC", "setting": "Bacillus pumilus [7]", "value": 15.6, "unit": "µg/mL"}, {"measurement": "MIC", "setting": "Enterococcus faecalis [8]", "value": 7.81, "unit": "µg/mL"}, {"measurement": "MIC", "setting": "Escherichia coli [9]", "value": 3.91, "unit": "µg/mL"}, {"measurement": "MIC", "setting": "Enterobacter cloacae [10]", "value": 31.2, "unit": "µg/mL"}, {"measurement": "MIC", "setting": "Aspergillus niger [11]", "value": 62.5, "unit": "µg/mL"}, {"measurement": "MIC", "setting": "Candida albicans [12]", "value": 31.2, "unit": "µg/mL"}, {"measurement": "inhibition (INH)", "setting": "Bacillus pumilus [13]", "value": 51.3, "unit": "%"}, {"measurement": "inhibition (INH)", "setting": "Enterococcus faecalis [14]", "value": 78.6, "unit": "%"}, {"measurement": "inhibition (INH)", "setting": "Enterobacter cloacae [15]", "value": 50.5, "unit": "%"}, {"measurement": "inhibition (INH)", "setting": "Aspergillus niger [16]", "value": 88.3, "unit": "%"}, {"measurement": "inhibition (INH)", "setting": "Candida albicans [17]", "value": 85.5, "unit": "%"}, {"measurement": "MBC", "setting": "Bacillus pumilus [18]", "value": 62.5, "unit": "µg/mL"}, {"measurement": "MBC", "setting": "Enterococcus faecalis [19]", "value": 31.3, "unit": "µg/mL"}, {"measurement": "MBC", "setting": "Enterobacter cloacae [20]", "value": 15.6, "unit": "µg/mL"}, {"measurement": "MBC", "setting": "Aspergillus niger [21]", "value": 125, "unit": "µg/mL"}, {"measurement": "MBC", "setting": "Candida albicans [22]", "value": 125, "unit": "µg/mL"}, {"measurement": "IC50", "setting": "Caco-2", "value": 65.9, "unit": "µg/mL"}, {"measurement": "IC50", "setting": "[23]", "value": 138, "unit": "µg/mL"}]}, {"smiles": "Nc1cc(-c2ccc([N+](=O)[O-])cc2)nc2c1C(c1cccs1)c1c([nH]c(=O)[nH]c1=O)O2", "note": "(stereo not given)", "values": [{"measurement": "IC50", "setting": "[24]", "value": 15.8, "unit": "nM"}, {"measurement": "IC50", "setting": "MCF7 [25]", "value": 660, "unit": "nM"}, {"measurement": "IC50", "setting": "HCT-116", "value": 2760, "unit": "nM"}]}, {"smiles": "Cc1nc2c(c(=O)[nH]1)C(c1ccc([N+](=O)[O-])cc1)c1c(n[nH]c1C)O2", "note": "(stereo not given)", "values": [{"measurement": "Activity", "setting": "Human alphaherpesvirus 1 [26]", "value": 63, "unit": "%"}, {"measurement": "Activity", "setting": "Human alphaherpesvirus 1 [27]", "value": 95, "unit": "%"}]}]}
